Where two headings read alike, the source gives them in different places.
Assays:
C57BL/6 female mice [1] = assay: General toxicity: mortality, health, body weight, histopathology; format: in vivo; conditions: for mortality: ITF6475 all doses p.o. daily
Procedure: In the days of co-treatment, ricolinostat and all doses of ITF were administered 4 h before PTX. The animals were housed in a certified and limited-access facility with controlled temperature (22 °C ± 2) and humidity (50% ± 20) and an artificial 12 h:12 h light cycle from 7 a.m. to 7 p.m. Mice were monitored daily to evaluate the mortality and their health, and body weight was measured twice a week during the treatment period in order to monitor general conditions and to adjust the dose.
(§1) At baseline and at the end of treatment, neurophysiological evaluations and dynamic tests were performed (Figure 1). Baseline neurophysiological results were used to randomize the animals into the 6 groups to ensure homogeneity. At the end of treatment, the animals were sacrificed by isoflurane overdose, caudal nerves, liver, spleen, thymus, kidneys, and sternum were used for histopathological analysis, and skin biopsies for intraepidermal nerve fiber (IENF) density analysis were collected. At the end of the study, blood was collected from the tail vein under isoflurane anesthesia into 1.5 mL Eppendorf tubes, centrifuged at 3500× g for 10 min at 4 °C, and then serum was transferred into a new tube and stored at –80 °C until examined for neurofilament light (NfL) level analysis.
Liver, spleen, thymus, kidneys, and sternum were collected and fixed in 10% buffered formalin at room temperature for 4 days. After fixation, the sternum was decalcified for 48 h at room temperature in 10% buffered EDTA. After trimming, these samples were paraffin-embedded, cut into 3 µm thick sections, stained with hematoxylin–eosin, and examined with an Olympus BX51 light microscope (Olympus, Segrate, Italy).

C57BL/6 female mice [2] = assay: Neuropathology, morphological analysis of caudal nerves; format: in vivo, mouse; conditions: end of treatment, PTX alone or in combination
Procedure: Caudal nerves were isolated for morphological analysis and processed as previously described, separating the proximal and the distal portions to obtain a better evaluation of the distal-to-proximal extension of the damage. Briefly, the caudal and sciatic nerves were immersion-fixed in 3% glutaraldehyde and were subsequently osmicated, dehydrated, and embedded in epoxy resin. Semithin sections of 1.5 μm thickness were prepared from at least three tissue blocks for each animal, stained with toluidine blue, and examined with a Nexcope Ne920 AUTO light microscope (TiEsseLab Srl, Milano, Italy).

[3] = test system: neurofilament light (NfL); assay: Serum neurofilament light (NfL) analysis in PIPN model; format: in vivo, mouse; conditions: end of treatment
Procedure: as §1
Serum NfL concentrations were measured using an automated chemiluminescent enzyme immunoassay instrument LUMIPULSE G600 (LUMIPULSE G NfL Blood kit, Fujirebio, Pomezia, Italy). The concentration was expressed in pg/mL [27, 30, 31].

[4] = Pharmacokinetic assessment in mouse plasma (LC-MS/MS); format: in vivo; conditions: for Cmax / AUC(0-t): oral; for AUC(0-t): read-out: AUC0–8h
Procedure: For the determination of ITF6475 in mouse plasma (n. 3 mice/group), aliquots of 20 µL of samples were deproteinized by adding 300 µL of acetonitrile. After centrifugation, 100 µL of the supernatant was collected from each sample and allowed to dry in a nitrogen flow at 35 °C. The residue was then reconstituted in 150 µL of the mixture in 90% water/10% acetonitrile and 0.1% formic acid.
Quantification of ITF6475 in the samples was carried out on a calibration curve in the range 1–1000 ng/mL. Quantification of Ricolinostat in mouse plasma was carried out on aliquots of 20 µL and deproteinized with 200 µL of acetonitrile. Aliquots of 100 µL of the supernatant were collected and diluted with 100 µL of the mixture in 90% water/10% acetonitrile and 0.1% formic acid. The calibration curve range was 1–1000 ng/mL.
Samples were analyzed in an LC-MS/MS system, constituted by a Prominence Shimadzu HPLC (Shimadzu Italia S.r.l., Milano, Italy) and an API6500+ triple quadrupole mass spectrometer equipped with TurboIonSpray (Sciex, Milano, Italy). Analyses were carried out in a positive mode. The system was managed through the software Analyst 1.7.2 (Sciex, Milano, Italy).

[5] = general statement on hydroxamic acids, no reference given; cited from earlier work
C57BL/6 female mice [6] = format: in vivo; conditions: PTX + ricolinostat 50 mg/kg p.o. daily
Procedure: (§2) C57BL/6 female mice (Inotiv, Udine, Italy) were used and randomized into six different groups (19 mice/group): one group was treated with PTX vehicle i.v., 1 time/week for 4 weeks and methocel 0.5% os, daily (VEH group); a second group was treated with PTX, i.v., 70 mg/kg 1 time/week for 4 weeks (PTX group); and the other four groups were treated with PTX, i.v., 70 mg/kg 1 time/week for 4 weeks and co-treated with ricolinostat, p.o., 50 mg/kg daily (PTX + ACY group), or with ITF6475, p.o., 1–6–12.5 mg/kg daily, p.o., (PTX + ITF1, PTX + ITF6, PTX + ITF12.5 groups), respectively (Figure 1). In the days of co-treatment, ricolinostat and all doses of ITF were administered 4 h before PTX. […] Mice were monitored daily to evaluate the mortality and their health, and body weight was measured twice a week during the treatment period in order to monitor general conditions and to adjust the dose.
The onset of PIPN was assessed by evaluating the sensory nerve conduction velocity (NCV) and nerve action potential amplitude (SNAP) of caudal and digital nerves using the electromyography apparatus (Matrix Light, Micromed, Treviso, Italy). […] Latencies were measured from stimulus onset, and peak-to-peak amplitudes were calculated. The NCV was calculated considering the measured distance between the recording and the stimulating negative electrode divided by the latency. […]

C57BL/6 female mice [7] = format: in vivo; conditions: end of treatment, PTX + ACY 50 mg/kg p.o. daily, p < 0.01
Procedure: as §2
To evaluate the IENF density, glabrous skin punches from the plantar hind paw were fixed in paraformaldehyde-lysine and periodate sodium (PLP) 2%, cryoprotected and serially cut in 20 μm thick sections. […] The total number of PGP 9.5-positive IENF crossing the dermal-epidermal junction was counted by a blinded examiner (ACh) under a light microscope at 40× magnification (Nexcope Ne920 AUTO light microscope, TiEsseLab Srl, Milano, Italy). […]

[8] = 4 weeks, PTX 70 mg/kg i.v. 1 time/week, ricolinostat 50 mg/kg p.o. daily

Structure (SMILES)	mortality (C57BL/6 female mice [1]; [8])	mice with mild, diffuse hepatic lipidosis (C57BL/6 female mice [1]; female, C57BL/6, mouse, in vivo, 4 weeks)	morphology of distal caudal nerves (C57BL/6 female mice [2])	morphology of proximal caudal nerves (C57BL/6 female mice [2])	serum NfL vs. VEH ([3]; PTX 70 mg/kg i.v. alone, p < 0.001)	AUC increase with dosage [4]	Cmax ([4]; 25 mg/kg, dose 25 mpk)	AUC(0-t) ([4]; 25 mg/kg, dose 25 mpk)	Cmax ([4]; 100 mg/kg, dose 100 mpk)	AUC(0-t) ([4]; 100 mg/kg, dose 100 mpk)	Cmax ([4]; 200 mg/kg, dose 200 mpk)	AUC(0-t) ([4]; 200 mg/kg, dose 200 mpk)	protein binding (in words) [5]	protection of PTX-induced reduction in digital nerve SNAP (C57BL/6 female mice [6])	IENF density vs. VEH (C57BL/6 female mice [7])	tolerability (C57BL/6 female mice [1]; 4 weeks, PTX 70 mg/kg i.v. 1 time/week, ricolinostat 50 mg/kg p.o. daily, ITF6475 1–6–12.5 mg/kg p.o. daily (all doses))	body weight vs. VEH (C57BL/6 female mice [1]; PTX alone or in combination with ricolinostat 50 mg/kg or all doses of ITF)	relevant toxicity (C57BL/6 female mice [1]; co-treated mice, ricolinostat 50 mg/kg or ITF6475 1–12.5 mg/kg p.o. daily with PTX)	histopathology of thymus and spleen (C57BL/6 female mice [1]; end of treatment, PTX alone or in combination with ricolinostat or ITF6475)	serum NfL vs. VEH ([3]; PTX + ACY 50 mg/kg p.o. daily, p < 0.05)
CC(=O)O[C@H]1C(=O)[C@@]2(C)[C@H]([C@H](OC(=O)c3ccccc3)[C@]3(O)C[C@H](OC(=O)[C@H](O)[C@@H](NC(=O)c4ccccc4)c4ccccc4)C(C)=C1C3(C)C)[C@]1(OC(C)=O)CO[C@@H]1C[C@@H]2O [PTX, paclitaxel]	no mortality was observed	approximately 25%	even more severe axonopathy	severe axonopathy with numerous degenerated fibers	statistically significant difference															
O=C(CCCCCCNC(=O)c1cnc(N(c2ccccc2)c2ccccc2)nc1)NO [ricolinostat]	no mortality was observed					increase non-linearly at doses above 25 mg/kg	33.7 ng/mL	124 ng·h/mL	29.8 ng/mL	171 ng·h/mL	33.9 ng/mL	234 ng·h/mL	not heavily protein-bound	significant protection of reduction in digital nerve SNAP	statistically significant reduction	well tolerated	statistically significant increase in body weight	no evidence of relevant toxicity	thymic and splenic hypoplasia associated with reactive extramedullary ectopic hematopoiesis	statistically significant difference

— article PMC12474259, “ITF6475, a New Histone Deacetylase 6 Inhibitor, Prevents Painful Neuropathy Induced by Paclitaxel” (Toxics, 2025)
